Reference: ChEMBL document CHEMBL1129108, “On the bioactive conformation of the gaba uptake inhibitor SK&F 89976-A” (Bioorg Med Chem Lett, 1996)

Tests used:
Format in all cases: functional
[1] = molecular target: T1, Sodium- and chloride-dependent GABA transporter 2 (Rattus norvegicus, UniProt P31646); assay: Compound was tested for its ability to inhibit uptake of [3H]- GABA by cloned rat GAT-2 transporte
T1 sequence (P31646 whole entry): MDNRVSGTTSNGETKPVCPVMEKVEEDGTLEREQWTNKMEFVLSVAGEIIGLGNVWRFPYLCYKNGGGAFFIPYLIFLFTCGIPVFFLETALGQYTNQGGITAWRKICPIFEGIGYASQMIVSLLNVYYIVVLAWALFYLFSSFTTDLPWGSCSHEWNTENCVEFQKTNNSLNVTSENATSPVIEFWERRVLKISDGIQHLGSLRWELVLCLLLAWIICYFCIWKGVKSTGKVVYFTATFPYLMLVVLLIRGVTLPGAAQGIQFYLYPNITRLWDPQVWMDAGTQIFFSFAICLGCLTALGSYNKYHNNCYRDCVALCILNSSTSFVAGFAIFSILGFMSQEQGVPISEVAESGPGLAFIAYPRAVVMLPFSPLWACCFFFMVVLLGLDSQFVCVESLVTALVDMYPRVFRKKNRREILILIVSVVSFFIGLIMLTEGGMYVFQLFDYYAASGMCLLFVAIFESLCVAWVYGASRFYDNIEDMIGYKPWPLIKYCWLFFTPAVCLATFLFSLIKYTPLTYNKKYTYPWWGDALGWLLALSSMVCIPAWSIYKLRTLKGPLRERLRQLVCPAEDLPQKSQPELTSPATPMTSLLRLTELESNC

[2] = molecular target: T2, Sodium- and chloride-dependent betaine transporter (Homo sapiens, UniProt P48065); assay: Compound was tested for its ability to inhibit uptake of [3H]- GABA by cloned human BGT-1 transporter
T2 sequence (P48065 whole entry): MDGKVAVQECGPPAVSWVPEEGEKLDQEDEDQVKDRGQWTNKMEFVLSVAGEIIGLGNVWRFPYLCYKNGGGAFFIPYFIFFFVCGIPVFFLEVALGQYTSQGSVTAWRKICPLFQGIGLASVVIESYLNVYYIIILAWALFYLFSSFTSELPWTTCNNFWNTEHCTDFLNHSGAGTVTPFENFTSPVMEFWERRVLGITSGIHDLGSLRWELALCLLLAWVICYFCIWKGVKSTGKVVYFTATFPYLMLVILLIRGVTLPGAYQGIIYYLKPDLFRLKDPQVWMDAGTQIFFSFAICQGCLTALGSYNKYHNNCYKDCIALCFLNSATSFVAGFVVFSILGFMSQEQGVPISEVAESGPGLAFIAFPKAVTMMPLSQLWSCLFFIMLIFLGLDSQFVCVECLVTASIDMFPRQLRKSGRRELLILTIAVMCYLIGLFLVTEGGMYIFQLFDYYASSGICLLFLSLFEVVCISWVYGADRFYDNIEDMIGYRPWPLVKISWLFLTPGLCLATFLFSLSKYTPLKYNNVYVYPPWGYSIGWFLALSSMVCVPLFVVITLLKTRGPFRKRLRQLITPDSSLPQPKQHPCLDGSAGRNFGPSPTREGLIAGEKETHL

[3] = molecular target: T3, Sodium- and chloride-dependent GABA transporter 3 (Homo sapiens, UniProt P48066); assay: Compound was tested for its ability to inhibit uptake of [3H]- GABA by cloned human GAT-3 transporter
T3 sequence (P48066 whole entry): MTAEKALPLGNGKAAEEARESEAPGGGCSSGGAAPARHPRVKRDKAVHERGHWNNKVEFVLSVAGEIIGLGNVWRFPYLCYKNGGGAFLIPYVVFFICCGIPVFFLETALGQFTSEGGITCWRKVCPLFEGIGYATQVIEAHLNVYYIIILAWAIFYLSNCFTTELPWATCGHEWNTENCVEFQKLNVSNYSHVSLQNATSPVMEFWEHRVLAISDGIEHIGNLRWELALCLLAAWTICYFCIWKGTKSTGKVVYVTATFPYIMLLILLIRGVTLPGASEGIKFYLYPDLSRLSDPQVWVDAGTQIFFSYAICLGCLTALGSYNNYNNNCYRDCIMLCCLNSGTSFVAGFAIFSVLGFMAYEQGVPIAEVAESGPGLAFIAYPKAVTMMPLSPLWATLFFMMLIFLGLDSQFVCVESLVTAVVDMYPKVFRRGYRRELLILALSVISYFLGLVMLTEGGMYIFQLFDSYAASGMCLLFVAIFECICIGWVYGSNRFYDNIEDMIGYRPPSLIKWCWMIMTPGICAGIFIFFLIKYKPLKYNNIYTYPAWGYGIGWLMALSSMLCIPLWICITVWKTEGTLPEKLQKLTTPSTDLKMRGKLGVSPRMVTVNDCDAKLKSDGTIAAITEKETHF

[4] = molecular target: Sodium- and chloride-dependent GABA transporter 1 (Homo sapiens, UniProt P30531); assay: Compound was tested for its ability to inhibit uptake of [3H]- GABA by cloned human GAT-1 transporter
Chain of Sodium- and chloride-dependent GABA transporter 1 (P30531 whole entry): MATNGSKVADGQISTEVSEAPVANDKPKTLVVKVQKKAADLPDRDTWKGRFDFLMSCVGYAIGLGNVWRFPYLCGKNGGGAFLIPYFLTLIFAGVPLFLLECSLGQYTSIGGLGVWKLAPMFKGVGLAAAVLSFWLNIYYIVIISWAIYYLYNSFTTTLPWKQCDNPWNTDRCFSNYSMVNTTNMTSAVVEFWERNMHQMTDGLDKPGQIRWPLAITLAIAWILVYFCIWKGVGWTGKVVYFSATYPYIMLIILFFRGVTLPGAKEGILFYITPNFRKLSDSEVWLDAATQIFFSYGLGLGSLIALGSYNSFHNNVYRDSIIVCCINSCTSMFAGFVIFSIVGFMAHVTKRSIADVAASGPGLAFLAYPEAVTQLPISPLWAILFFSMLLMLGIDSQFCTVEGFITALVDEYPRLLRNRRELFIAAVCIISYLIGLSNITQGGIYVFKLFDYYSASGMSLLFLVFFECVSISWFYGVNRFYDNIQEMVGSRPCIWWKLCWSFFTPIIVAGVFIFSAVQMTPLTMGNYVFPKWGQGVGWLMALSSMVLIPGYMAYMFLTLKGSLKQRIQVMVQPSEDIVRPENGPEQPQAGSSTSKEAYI

SMILES | IC50 [1] | IC50 [2] | IC50 [3] | IC50 [4]
O=C(O)[C@H]1CCC2CC(=C(c3ccccc3)c3ccccc3)CCN2C1 (stereo partly specified) | 757 µM | 335 µM | 876 µM | 809 µM
O=C(O)[C@@H]1CCC2C[C@H](C(c3ccccc3)c3ccccc3)CCN2C1 (stereo partly specified) | 477 µM | 2900 µM | 2040 µM | 632 µM
O=C(O)[C@H]1CCC2C[C@H](C(c3ccccc3)c3ccccc3)CCN2C1 (stereo partly specified) | 669 µM | 809 µM | 782 µM | 270 µM
O=C(O)[C@@H]1CCC2CC(=C(c3ccccc3)c3ccccc3)CCN2C1 (stereo partly specified) | 810 µM | 436 µM | 3230 µM | 270 µM
